This note sets out measurements from US7879347B2, “Dihydroxyphenyl compounds and glucoside compounds thereof” (KAO Corporation, priority 2001, dated 2011).

The nature of series [1]: Anti-oxidation test (UV-induced peroxide formation). More on the design: unit not given here. The conditions noted are these: 0.005 g compound in 1 ml methyl linolate. The text has this:
Comparative test on raspberry ketone was made in the same manner as above.

Series [2] concerns Free fatty cells from epididymis fatty tissues. Kind of series: Determination of lypolytic activity in free fatty cells. It is filed as cell-based, Wister male rats. The conditions noted are these: for degree of lypolysis promotion (%): 100 μg/ml test compound, 0.05 μg/ml norepinephrine, 37° C., 1 hour, fatty acids relative to control solution without compound (=100). How it is done:
The cells were added to a Hank's balanced solution containing 0.05 μg/ml of bovine serum albumin, 0.05 μg/ml of norepinephrine and 100 μg/ml of the present compound to be tested, and then allowed to react at 37° C. for 1 hour. Liberated fatty acids were extracted and quantitated with a copper reagent and a color developing reagent. Lypolytic activity was calculated according to the following equation. Lypolytic activity(%)=[A/B]×100, wherein A: amount of fatty acids in a sample solution, and B: that in a control solution without present compound. Subcutaneous Fat Decomposition Test

The test system of a further series is B16 melanoma cells. In words: Melanogenesis inhibition test. In kind it is cell-based. Conditions: 72 hours; for Amount of melanin per cell (%): Theophylline containing medium, relative to blank. How it is done:
B16 melanoma cells were inoculated in a 12 wells-plastic plate at a concentration of 2×10^4/well on MEM (Minimum Essential Medium). After 24 hours, the medium was changed to a Theophylline containing medium to which 4-(3′,4′-dihydroxyphenyl)-butane-2-one was added in the concentrations shown in Table 6. The cells were cultured for 72 hours and then treated with 10% TCA and ethanol/diethylether(=1/1). After counting the number of the cells, the cells were dissolved in an aqueous 1 mol/l sodium hydroxide solution containing dimethylsulfoxide in a concentration of 10%. Optical density at 475 nm (OD475) of the solution thus obtained was measured.

Take `CC(=O)CCc1ccc(O)c(O)c1` [4-(3′,4′-dihydroxyphenyl)-butane-2-one]: the “amount of peroxides formed by oxidation of methyl linolate” value was found to be 1.6 in series [1] (UVB 10 (J/cm^2)) and 3.7 in series [1] (UVB 30 (J/cm^2)). In addition, the “degree of lypolysis promotion (%)” value in series [2] is reported as 194.3 +/− 12.4%. Further, in series [2] (comparison in words), the “lypolytic activity compared with raspberry ketone of Comparative Example 1” value is reported as “significantly higher”. Moreover, the “Amount of melanin per cell (%)” value with B16 melanoma cells (concentration 1 μg/l) turned out to be 94.7%; with B16 melanoma cells (concentration 3 μg/l), 77.2%; with B16 melanoma cells (concentration 10 μg/l) it was 62.7%; in the series with B16 melanoma cells (concentration 30 μg/l) it was 2.2%. In the series on B16 melanoma cells (concentration range of Table 6 (up to 30 μg/l)), the “numbers of the cells” value is reported as “no difference”.
For the compound `CC(=O)CCc1ccc(O)cc1` [Raspberry ketone, reference compound], the entries for the “amount of peroxides formed by oxidation of methyl linolate” value in series [1] (UVB 10 (J/cm^2)) and in series [1] (UVB 30 (J/cm^2)) were 30.2 and 42.5, respectively. Also, the “degree of lypolysis promotion (%)” value in series [2] is recorded as 142.0 +/− 6.8%.
